According to PubChem BioAssay (NCI):
“And” between values parts separate entries of the source, which are not always exact repeats. Identical values can stand only once.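 Method: 48-hour compound exposure of cells in 96-well plates, five concentrations, linear interpolation of endpoints. Here, GI50 denotes the concentration required for 50% inhibition of growth. At the TGI there is no net growth.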

Tests used:
Assay in all cases: NCI tumour cell line growth inhibition, 48 h
[1] = system: SK-OV-3 ovarian
[2] = system: NCI/ADR-RES ovarian
[3] = system: SW-620 colon
[4] = system: MOLT-4 leukemia
[5] = system: SNB-19 CNS
[6] = system: SK-MEL-28 melanoma
[7] = system: HCT-116 colon
[8] = system: EKVX NSCLC
[9] = system: SF-295 CNS
[10] = system: OVCAR-3 ovarian

Row | Structure (SMILES) | GI50 [1] [µM] | TGI [1] | GI50 [2] [µM] | TGI [2] [µM] | GI50 [3] [µM] | TGI [3] [µM] | GI50 [4] [µM] | TGI [4] [µM] | GI50 [5] [µM] | TGI [5] [µM] | GI50 [6] [µM] | TGI [6] [µM] | GI50 [7] [µM] | TGI [7] [µM] | GI50 [8] [µM] | TGI [8] [µM] | GI50 [9] [µM] | TGI [9] [µM] | GI50 [10] [µM] | TGI [10] [µM]
1 | O=c1nc2n(-c3cccc(Cl)c3)c3ccc([N+](=O)[O-])cc3cc-2c(=O)[nH]1 | 15 | > 25 µM | 6.15 | 19.7 | 2.3 | > 25 | 2.02 | > 25 | 7.5 | > 25 | 8.01 | > 25 | 1.53 | 5.68 | 11.9 | > 25 | 4.92 | 10.9 | 1.08 | 4.42
2 | CC(C)=CC[C@@H]1CC2(CC=C(C)C)C(=O)C(OC3(C(=O)c4ccccc4)C(=O)C4(CC=C(C)C)C[C@@H](CC=C(C)C)C(C)(C)C(CC=C(C)C)(C4=O)C3=O)(C(=O)c3ccccc3)C(=O)C(CC=C(C)C)(C2=O)C1(C)C (stereo partly specified) | 1.41 | 4 µM | 1.6 | 5.67 | 1.92 | 8.29 | 1.3 | 4.51 | 1.64 | 6.65 | 1.18 | 3.25 | 0.953 | 2.3 | 1.2 | 4.2 | 1.01 | 2.5 | 1.24 | 3.25
3 | COc1ccc(-c2csc3c2-n2cccc2C3=O)cc1 | – | 5.98 µM and 25.3 µM | – | > 100 | 0.0056 | > 100 | 0.0352 | > 87.7 | 0.0394 | > 100 | – | > 100 | 0.0199 | > 45.4 | 0.597 | > 81.4 | 0.0476 | > 75.5 | – | 0.264
4 | O=c1c2ccccc2nc(-c2cccc([N+](=O)[O-])c2)n1O | – | > 100 µM | – | > 87.4 | – | > 100 | – | > 100 | – | > 100 | – | > 100 | – | > 100 | – | > 100 | – | > 100 | – | > 94.3
5 | C[C@@H]1CN2[C@H]3[C@@H]1CC[C@]31CCC(=O)O[C@]1(C)[C@H]1CC[C@H]3CCC=C3[C@@H]12 | > 30 | > 30 µM | > 30 | > 30 | > 30 | > 30 | > 30 | > 30 | > 30 | > 30 | > 30 | > 30 | > 30 | > 30 | > 30 | > 30 | > 30 | > 30 | > 30 | > 30
6 | CC1=C(CCCOC(=O)[C@H](N)CC(C)C)C2=C(C)C3(CC3)[C@@](C)(O)C(=O)C2=C1 | 0.752 | 3.03 µM | 2.14 | > 38.8 | 19.6 | > 84 | 24.6 | > 100 | 2.88 | > 100 | 2.11 | 5.51 | 1.7 | 5.91 | 2.77 | 8.66 | 2.19 | > 31.2 | 2.31 | 7.6
